For one assay, the system named is C2C12 myotubes. Put plainly: SUnSET assay of protein synthesis. The class given is cell-based, mouse. The conditions noted are these: 10 μM Dex 24 h, 12.5 μM BML-260. The procedure: The surface sensing of translation (SUnSET) assay was used to measured protein synthesis, in accordance with the published protocol (Vinel et al, [2018]). In brief, 1 μg/mL puromycin was added to the myotube cultures and cell lysates were then harvested 10 min later. Western blotting was carried out using an anti-puromycin 12D10 antibody (MABE343; Millipore).

The subject of the next assay is human skeletal myotubes. In words: Dex-induced atrophy of human donor skeletal myotubes, myotube diameter. In kind it is cell-based. The conditions noted are these: 10 μM Dex and 12.5 μM BML-260 for 24 h. An excerpt:
Figure 9 DUSP22 targeting downregulates atrogene expression in immobilized skeletal muscle and inhibits atrophy in human donor myotubes. (A) Effect of immobilization on skeletal muscle mass using the plastic EP tube method (n = 3). (B) qPCR analysis of DUSP22 expression in the TA muscle (IM = immobilized) (n = 3) (p = 0.018). (C) Plot of DUSP22 expression in relation to TA mass (n = 6). (D) Western blot analysis of DUSP22 expression (n = 3) (p = 0.1699). (E) TA mass (n = 9,7) (p = (Sham = <0.0001, BML-260 = 0.007)). […] Quantification of atrogin-1, MuRF-1, and DUSP22 levels relative to GAPDH are also shown. […]
Human skeletal myoblasts were purchased from Thermo-Fisher Scientific, USA, re-suspended in DM and seeded onto 12-well culture plates at a density of 4.8 × 10^4 cells/well. 72 h later, the differentiated myotubes were treated with 10 μM Dex for 24 h, stained with haematoxylin and eosin (H&E) using a kit (Merck, Germany) and myotube diameter measured by light microscopy analysis of DIC captured images (Olympus CKX41, Olympus Life Science, Japan) and the NIH imaging software Image J 64 (National Institutes of Health, MD, USA). At least 80 myotubes in 5 micrographs were measured in each experimental group.

The test system of another assay is C57BL/6 mice. In words: Hind limb immobilization model, BML-260 treatment. In kind it is in vivo, mouse. The procedure: Western blotting was carried out using the previously published protocol (Lee et al, [2020]). The NIH imaging software Image J 64 was used for densitometry analysis of the gel bands. The primary and secondary antibodies used in this study are shown in the reagent and tools table. Chemiluminescence was used to detect the secondary antibody.
To immobilize the hind limbs, 14-week-old male C57BL/6 mice were anesthetized with isoflurane and both hind limbs were fixed with plastic EP-tubes (Axygen, MCT-175-C). To prevent the tubes from slipping, the junction between the tubes and the hind limbs were wrapped with insulating tape. BML-260 was treated as follows: (1) vehicle alone (5% DMSO + 5% tween 80) and (2) 5 mg/kg BML-260 (n = 3 per group). The mice were monitored daily and sacrificed after 14 days.
Mice were anesthetized using ketamine (22 mg/kg; Yuhan, Republic of Korea) and xylazine (10 mg/kg; Bayer, Republic of Korea) in saline by IP injection. The quadriceps, gastrocnemius, soleus and TA muscles were then dissected and weighed. For histological analysis, the muscles were fixed by overnight incubation with 4% paraformaldehyde in PBS pH 7.4 at 4 °C. Paraffin sectioning and H&E staining were provided by the Animal Housing Facility, Gwangju Institute of Science and Technology, Republic of Korea (5 µm muscle sections using a Thermo Scientific HistoStar (Thermofisher). H&E staining was carried out with a kit (Merck, Germany)). For immunohistochemistry, TA muscle sections were permeabilized for 15 min (PBS with 0.5% Triton X-100), blocked for 1 h (5% BSA) and incubated with the primary antibody overnight at 4 °C (a list of primary and secondary antibodies used in this study are provided in Appendix Tables S4 and S5, respectively). After washing with PBS 3 times for 5 min, the sections were incubated with the secondary antibody at RT for 1 h. The nuclei were counterstained with DAPI in ProLong™ Gold Antifade Mountant (Invitrogen, P36935). Digital images were acquired with Leica DM 2500 (Leica Microsystems). Cross sectional area (CSA) and fiber size distribution was measured using the NIH imaging software Image J 64. To CSA and size distribution of different fiber types was calculated in 4 muscle section as follows: type 2 A: 30–40 fibers measured; type 2B: at least 100 fibers measured; type 2X: 30–40 fibers measured.

For assay [1], the system named is VH1-related (VHR) phosphatase. Further details: method as in Cutshall et al, 2005. The conditions noted are these: ref Cutshall et al, 2005; cited from earlier work.
The test system of the next assay is C57BL/6J mice. In words: Dex treatment mouse model of skeletal muscle atrophy, BML-260 treatment. In kind it is in vivo. The conditions noted are these: TA muscle of C57BL/6 mice treated with Dex, Vehicle average = 1, n = 4.
The mark [2] stands for this setting: 5 mg/kg BML-260, 14 days immobilization.
Setting [3] is: TA of immobilized mice (Fig EV4), Sham average = 1.
Where [4] appears, read: TA of immobilized mice (Fig EV4), Sham average = 1, individual animals.

“And” between values parts separate entries of the source, which are not always exact repeats. Identical values can stand only once.

Regarding `O=C(O)c1ccc(N2C(=O)C(=Cc3ccccc3)SC2=S)cc1` (stereo in doubt) [BML-260], the “protein synthesis (puromycin incorporation)” value in the assay with C2C12 myotubes was “prevented the reduction in protein synthesis”. In addition, in the assay with human skeletal myotubes, the mean myotube diameter entry was “recovered the mean myotube diameter”. In addition, in the assay on C57BL/6 mice (setting [2]), the “DUSP22 levels in TA and gastrocnemius muscles, western blot” value was “reduced DUSP22 levels”; the “MYH4 (myosin heavy chain 2B) in TA muscle, western blot” value was “upregulation”; the “atrogin-1 and MuRF-1 expression in immobilized TA, western blot” value is “downregulated”; the “phosphorylation level of JNK in TA muscle, western blot” value is reported as “reduction”. For the same molecule, the “DUSP22, western blot quantification, Average” value in the assay on C57BL/6 mice (SHAM average = 1) was 0.5293. Besides, the “DUSP22, western blot quantification” value with C57BL/6 mice (SHAM average = 1, individual animals) was 0.9793 and 0.6244 and 0.3303 and 0.3563 and 0.317 and 0.5687. The “DUSP22, western blot quantification, Average” value in the assay with C57BL/6 mice (TA muscle of immobilized mice (Fig EV5), Sham average = 1) is 1.168. In addition, the “DUSP22, western blot quantification” value with C57BL/6 mice (TA muscle of immobilized mice (Fig EV5), Sham average = 1, individual animals) was 1.324 and 0.9536 and 0.9932 and 1.399. Further, the “p-jnk/jnk, western blot quantification, Average” value in the assay on C57BL/6 mice (TA muscle of immobilized mice, Sham average = 1) came to 0.4787. Further, the “p-jnk/jnk, western blot quantification” value in the assay with C57BL/6 mice (TA muscle of immobilized mice, Sham average = 1, individual animals) is 0.7134 and 0.5569 and 0.2233 and 0.4213. Besides, in the assay on C57BL/6 mice (setting [3]), the “DUSP22, western blot quantification, Average” value came out at 1.587 and the “MYH4, western blot quantification, Average” value is on record as 0.928. Also, in the assay with C57BL/6 mice (setting [4]), the “DUSP22, western blot quantification” value is 1.411 and 2.335 and 2.043 and 0.8602 and 1.621 and 1.251; the “MYH4, western blot quantification” value is 1.0151 and 0.5864 and 0.9197 and 0.796 and 1.189 and 1.062. Also, in assay [1], the “inhibitory effect against VHR phosphatase” value is recorded as “no inhibitory effect”.

As to `C[C@@H]1C[C@H]2[C@@H]3CCC4=CC(=O)C=C[C@]4(C)[C@@]3(F)[C@@H](O)C[C@]2(C)[C@@]1(O)C(=O)CO` [Dex, dexamethasone], the “DUSP22 expression, qPCR, Average” value in the assay on C57BL/6J mice was 1.655.

The values above are taken from paper PMC12162873, “Modulating phosphatase DUSP22 with BML-260 ameliorates skeletal muscle wasting via Akt independent JNK-FOXO3a repression” (EMBO Molecular Medicine, 2025).
